Where two headings read alike, the source gives them in different places. No end group written: not given here.
Experiments:
[1] = target: T1, Soluble mouse EPOR chimera proteins (Mus musculus, UniProt P14753); experiment: SPR binding affinity of erythropoietin-derived peptides to erythropoietin receptor; conditions: for kon: read-out: Ka (association rate); for koff: read-out: Kd (dissociation rate)
T1 construct: Soluble mouse EPOR chimera proteins; purchased R&D Systems
T1 sequence (P14753 25-249 limits assumed): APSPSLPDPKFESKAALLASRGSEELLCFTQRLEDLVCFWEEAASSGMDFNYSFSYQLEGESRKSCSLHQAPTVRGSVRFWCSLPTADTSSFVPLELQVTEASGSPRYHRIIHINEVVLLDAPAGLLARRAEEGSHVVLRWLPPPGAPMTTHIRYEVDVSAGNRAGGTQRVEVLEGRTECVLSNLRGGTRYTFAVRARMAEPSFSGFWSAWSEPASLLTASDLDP
Method: The SPR technique is to measure interactions between biomolecules in real-time by using an optical principle without specific labeling, and is a system analyzing affinity between two molecules and kinetics, i.e., an association rate (Ka) and a dissociation rate (Kd).
In detail, real-time SPR analysis was performed using Reichert SPR Biosensor SR 7500C instrument (Reichert Inc., NY, USA). Soluble mouse EPOR chimera proteins (R&D Systems, Minneapolis, MN, USA) were covalently linked to a carboxymethylated dextran matrix-coated chip (BR-1005-39, Pharmacia Biosensor AB) by an amine coupling procedure using an amine coupling kit (BR-1000-50, GE Healthcare, USA) in accordance with manufacturer's instructions. Each 5 μM, 2.5 μM, and 1.25 μM of the peptide samples of the present disclosure and scrambled peptides were applied at a flow rate of 5 μl/minute, and the experiments were independently performed in duplicate. For signal normalization, DMSO was applied at a flow rate of 5 μl/minute, and after each binding cycle, the sensor chip was regenerated by injecting 25 mM acetic acid at a flow rate of 20 μl/minute.

mice = experiment: In vivo hematopoietic activity, blood test; parameters: species or system mouse
Method: In vivo hematopoietic activities in a mouse were measured for the peptides prepared in Example 5, MLP, MLP-C, and MLP-H.
In detail, the prepared peptide or scrambled (Scr) peptide as a negative control group was administered by intraperitoneal injection to mice at a dose of 0 μg/kg, 1 μg/kg, or 100 μg/kg repeatedly, everyday over 14 days. Thereafter, a body weight test and a blood test were performed.

erythropoietin receptor = target: T2, erythropoietin receptor (Homo sapiens, UniProt P19235); experiment: Erythropoietin receptor activation through ERK1/2 phosphorylation (western blot) in HEK 293 cells expressing EPOR-GFP; type: cell-based; conditions: FIG. 12; for character of erythropoietin receptor activation: ERK1/2 phosphorylation
T2 construct: expressed in transfected cells
T2 sequence (P19235 25-508): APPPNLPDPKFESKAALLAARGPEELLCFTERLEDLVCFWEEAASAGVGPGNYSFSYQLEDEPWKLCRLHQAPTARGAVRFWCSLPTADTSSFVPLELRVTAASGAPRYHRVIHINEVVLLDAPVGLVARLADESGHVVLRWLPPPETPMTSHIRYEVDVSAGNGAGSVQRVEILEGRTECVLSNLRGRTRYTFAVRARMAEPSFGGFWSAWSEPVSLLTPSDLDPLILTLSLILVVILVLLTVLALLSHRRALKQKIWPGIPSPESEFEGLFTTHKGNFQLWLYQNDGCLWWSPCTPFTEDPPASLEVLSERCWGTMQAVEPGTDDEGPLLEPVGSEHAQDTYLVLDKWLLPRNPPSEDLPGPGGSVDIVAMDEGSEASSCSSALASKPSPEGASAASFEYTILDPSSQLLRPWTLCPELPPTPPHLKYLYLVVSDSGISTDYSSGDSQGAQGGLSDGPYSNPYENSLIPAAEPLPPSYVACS

PC12 cells [2] = experiment: Comparison of cell protective and proliferative effects to EPO by K-means clustering; type: cell-based; conditions: FIG. 9
PC12 cells [3] = experiment: Cell proliferation, MTT assay; type: cell-based; conditions: 10 ng/ml peptide, 24 hours, FIG. 7
Method: To determine the side effect, such as cell proliferation, of the peptides prepared in Examples 1 to 3, cell viability was evaluated by an MTT assay.
In detail, PC12 cells were cultured in a DMEM (Dulbecco's Modified Eagle's Medium) medium (Hyclone, USA) and an RPM11640 medium (Hyclone, UT, USA), each supplemented with 10% fetal bovine serum (FBS, Hyclone, Utah, USA), 100 unit/ml penicillin, and 100 μg/ml streptomycin (Hyclone, UT, USA) in an incubator supplied with 5% CO2 and under a condition of 37° C. PC12 cell lines were seeded in a 96-well plate at a density of 5×10^4 cells/ml, and cultured under conditions of 37° C. and 5% CO2 for 24 hours. Thereafter, the cells were treated with each of the peptides of Examples 1 to 3, which were prepared at a concentration of 10 ng/ml, followed by incubation for 24 hours. Thereafter, 20 μl of 5 mg/ml 3-[4,5-dimethyl-thiazol]-2,5-diphenyl-tetrazolium bromide (MTT) reagent was added thereto, and allowed to react for 2 hours. After reaction, 200 μl of dimethyl sulfoxide (DMSO, Duksan, Gyeonggi-do, Korea) was added thereto to completely dissolve formed formazan, and absorbance at 570 nm was measured using a microplate reader (Molecular Devices, CA, USA).

[4] = 100 μg/kg intraperitoneal daily over 14 days
[5] = sampling at 0, 30, 60, 90 minutes

AGLRSRAHLRRALA [ML5-1]
kon ([1]; SPR, Table 10): 442 M⁻¹ s⁻¹ | koff ([1]; SPR, Table 10): 0.0346 s⁻¹

TKVNFYAWKR [ML3]
kon ([1]; SPR, Table 10): 205 M⁻¹ s⁻¹ | koff ([1]; SPR, Table 10): 0.003 s⁻¹

RHVKKRVKGLKSLTTLLRA (MLP-C) [ML1-C3 with two amino acids removed from both ends, for in vivo use]
hemoglobin content (mice; [4]): significant increases | mean corpuscular hemoglobin (mice; [4]): significant increases | mean corpuscular hemoglobin concentration (mice; [4]): significant increases | red blood cell count (mice; 100 μg/kg intraperitoneal daily over 14 days, FIG. 11B): significant increases | platelet concentration (mice; intraperitoneal daily over 14 days, FIG. 11D): no large change | hematocrit (mice; intraperitoneal, 1 or 100 μg/kg daily over 14 days, FIG. 11A): significantly increased according to an administration dose | character of erythropoietin receptor activation (erythropoietin receptor): brief but potent activation | erythropoietin receptor activation after 30 minutes (erythropoietin receptor; [5]): decline thereafter | time of maximum erythropoietin receptor activity (ERK1/2 phosphorylation) (erythropoietin receptor; [5]): 30 min

CC[C@H](C)[C@H](NC(=O)[C@H](C)NC(=O)[C@H](CCC(=O)O)NC(=O)[C@H](CCCCN)NC(=O)[C@H](CCC(N)=O)NC(=O)[C@H](C)NC(=O)CNC(=O)[C@H](CC(C)C)NC(=O)[C@H](C)NC(=O)[C@H](CCCNC(=N)N)NC(=O)[C@H](CC(C)C)NC(=O)[C@H](CC(C)C)NC(=O)[C@@H](NC(=O)[C@@H](NC(=O)[C@H](CC(C)C)NC(=O)[C@H](CO)NC(=O)[C@H](CCCNC(=N)N)NC(=O)[C@H](CC(C)C)NC(=O)CNC(=O)[C@@H](N)CO)[C@@H](C)O)[C@@H](C)O)C(=O)O [ML6]
koff ([1]; SPR, Table 10): 0.045 s⁻¹

LDLEVDKAVSGLRSLTTLLRALG [ML1-C1]
kon [1]: 1750 M⁻¹ s⁻¹ | koff [1]: 0.262 s⁻¹ | clustering of cell protective and proliferative effects relative to EPO (PC12 cells [2]): clustered as having similar effects as EPO

DKAVSGLRSLTTLLRAL [ML8]
kon ([1]; SPR, Table 10): 180 M⁻¹ s⁻¹ | koff ([1]; SPR, Table 10): 0.08 s⁻¹

LQLHVDKAVSGLRSLTTLLRALG [ML1]
kon ([1]; SPR, Table 10): 1310 M⁻¹ s⁻¹ | koff ([1]; SPR, Table 10): 0.0085 s⁻¹ | kon ([1]; SPR, Table 11): 1310 M⁻¹ s⁻¹ | koff ([1]; SPR, Table 11): 0.00847 s⁻¹ | cell proliferative effects compared to EPO groups (PC12 cells [2]): a large difference | cell protective effects compared to EPO groups (PC12 cells [2]): no large difference

SGLRSLTTLLRALG [ML5]
kon ([1]; SPR, Table 10): 304 M⁻¹ s⁻¹ | koff ([1]; SPR, Table 10): 0.0001 s⁻¹

LQRHVDKRVSGLRSLTTLLRALG [ML1-C2]
kon ([1]; SPR, Table 11): 1590 M⁻¹ s⁻¹ | koff ([1]; SPR, Table 11): 0.0188 s⁻¹ | cell proliferation rate (PC12 cells [3]): cell proliferative effects to a degree similar to that of the natural erythropoietin | clustering of cell protective and proliferative effects relative to EPO (PC12 cells [2]): clustered as having similar effects as EPO

LHVLKAVSGLLTLTMIRRA (MLP-H) [ML1-H2 with two amino acids removed from both ends, for in vivo use]
character of erythropoietin receptor activation (erythropoietin receptor): weak yet lasts for a prolonged period of time | erythropoietin receptor activation after 30 minutes (erythropoietin receptor; [5]): maintains activation even after 30 minutes

LQLHVLKAVSGLLTLTMIRRALG [ML1-H2]
kon ([1]; SPR, Table 11): 3430 M⁻¹ s⁻¹ | koff ([1]; SPR, Table 11): 0.00105 s⁻¹ | cell proliferative effects compared to EPO groups (PC12 cells [2]): a large difference | cell protective effects compared to EPO groups (PC12 cells [2]): no large difference

LQLHVLKAVSGLLTHTTLLKALG [ML1-H1]
kon ([1]; SPR, Table 11): 1010 M⁻¹ s⁻¹ | koff ([1]; SPR, Table 11): 0.00794 s⁻¹ | cell proliferative effects compared to EPO groups (PC12 cells [2]): a large difference | cell protective effects compared to EPO groups (PC12 cells [2]): no large difference

TRVNYQAWKR [ML3-1]
kon ([1]; SPR, Table 10): 3080 M⁻¹ s⁻¹ | koff ([1]; SPR, Table 10): 0.013 s⁻¹

LQLHVLKRVSGLLSHTMLLKALG [ML1-1]
kon ([1]; SPR, Table 10): 5550 M⁻¹ s⁻¹ | koff ([1]; SPR, Table 10): 0.0059 s⁻¹

LHVDKAVSGLRSLTTLLRAL [ML2]
koff ([1]; SPR, Table 10): 0.0044 s⁻¹

RHVQKAESGLRSLTKLLREL [ML2-1]
kon ([1]; SPR, Table 10): 310 M⁻¹ s⁻¹ | koff ([1]; SPR, Table 10): 0.0041 s⁻¹

LQLHVLKAVAGLRTLAMIRRALA [ML1-H3]
kon ([1]; SPR, Table 11): 4160 M⁻¹ s⁻¹ | koff ([1]; SPR, Table 11): 0.00477 s⁻¹ | cell proliferative effects compared to EPO groups (PC12 cells [2]): a large difference | cell protective effects compared to EPO groups (PC12 cells [2]): no large difference

KGLRSLISLLRALGAQKEAI [ML6-1]
kon ([1]; SPR, Table 10): 190 M⁻¹ s⁻¹ | koff ([1]; SPR, Table 10): 0.03 s⁻¹

KKAVSGLKTLTHILRALGAQKEAI [ML4-1]
kon ([1]; SPR, Table 10): 410 M⁻¹ s⁻¹

LQRHVKKRVKGLKSLTTLLRALG [ML1-C3]
kon ([1]; SPR, Table 11): 1100 M⁻¹ s⁻¹ | koff ([1]; SPR, Table 11): 0.0109 s⁻¹ | cell proliferation rate (PC12 cells [3]): cell proliferative effects to a degree similar to that of the natural erythropoietin | clustering of cell protective and proliferative effects relative to EPO (PC12 cells [2]): clustered as having similar effects as EPO

DKAVSGLRSLTTLLRALGAQKEAI [ML4]
kon ([1]; SPR, Table 10): 220 M⁻¹ s⁻¹ | koff ([1]; SPR, Table 10): 0.0022 s⁻¹

DEALDLEVDKAATGLRTLTTLIRAL [ML7-1]
kon ([1]; SPR, Table 10): 226 M⁻¹ s⁻¹ | koff ([1]; SPR, Table 10): 0.0144 s⁻¹

NKAVAGLRSLTVN [ML8-1]
koff ([1]; SPR, Table 10): 0.15 s⁻¹
